This assay relates to normotensive Sprague Dawley rats. Briefly: Blood pressure effects in normotensive rats following acute oral dose. Format: in vivo, rat. Particulars: for Peak ΔVMAP (mm Hg): sodium salt in Milli-Q water, vehicle-adjusted MAP, 10-minute bins; for Time at Peak: time of peak ΔVMAP. On the procedure:
Male, normotensive Sprague Dawley rats were purchased from Charles River Laboratories. These rats have indwelling femoral artery catheters installed. Animals were harnessed to a tether system and attached to pressure transducers to monitor cardiovascular (CV) parameters, specifically mean arterial pressure (MAP) and heart rate (HR). Animals were acclimated to the system overnight and baseline CV parameters collected. The conscious, freely moving rats were then administered a single oral dose of the Compound I-14 (doses generated from the sodium salt of Compound I-14) in Milli-Q water at 1, 3, 10 and 30 mg/kg. A blood sample was collected from each animal through the catheter line at pre-dose and 2 hours post-dose for compound concentration quantification. Hemodynamic measures were recorded for ten hours post-dose. Fifty-four male rats were used for these studies and they were ordered to be received at a body weight range of 250-275 grams. They were single housed under controlled conditions of temperature (21±1° C.), relative humidity (36±1%) and placed in a 12-hr light-dark cycle (lights on at 6:00 AM and off at 6:00 PM) room at SmartLabs vivarium (21 Erie Street, Cambridge, MA) under protocol MIL-110. Animals were allowed ad libitum access to chow (LabDiet Prolab Isopro RMH 3000, St. Louis, MO) and water. Two sets of studies were carried out. For the first set of studies Compound I-14 was formulated at 0.3 and 1.0 mg/ml in Milli-Q water and frozen at −20° C. For the second set of studies, the sodium salt of Compound I-14 was weighed at Cyclerion Therapeutics and reconstituted at SmartLabs to provide 0.1, 0.3, 1.0 and 3.0 mg/ml solutions of Compound I-14 in Milli-Q water. Formulations prepared were thawed less than 4 hours before dosing and stored at room temperature or were made less than 2 hours before dosing and stored at room temperature.
Studies were conducted over 6 separate sessions. Animals were initially used within 3 days of receipt and if catheters remained patent, reused once after 6-7 days of washout. No animals were used more than twice.
This study utilized ADInstruments LabChart (v8) to collect hemodynamic data from conscious, freely moving rats tethered to a blood pressure transducer (Harvard Apparatus cat #APT300). Following an overnight acclimation to the tether and pressure transducer, animals were dosed following a 1-hr baseline recording period. Animals were administered a single oral (P.O.) dose of the sodium salt form of Compound I-14 or vehicle at a dose volume of 10 mL/kg. Data collection was continued for 10 hours post-dose.
ADInstruments LabChart (v8) was used to monitor and export hemodynamic data. Blood pressure and heart rate were continuously monitored, and data were collected at 1000 data points per second then averaged into 10-minute bins for analysis. Change from baseline MAP (ABMAP) and HR (ABHR) were calculated using the pre-dose baseline averaged over the 1-hr period prior to dosing using Microsoft Excel for Microsoft 365. This 10-minute bin dataset was used to determine peak ΔVMAP, time peak ΔVMAP, peak ΔVHR and time of peak ΔVHR. The dataset was further consolidated into 1-hr bins for the MAP and HR figures and the analysis of ΔBMAP, ΔBMAP, and ΔBHR. The definitions of these terms/abbreviations are summarized below:
Statistical analyses were performed in Graphpad Prism (v8). Significance, as compared to vehicle-treated rats, for ΔBMAP and ΔBHR data was determined by 2-way repeated measures ANOVA followed by a Dunnett's multiple comparisons test, if there was a missing data point, a mixed-effect analysis was utilized. Vehicle-adjusted MAP (ΔVMAP) was calculated by subtracting ΔBMAP of the vehicle group from the ΔBMAP of each dose group at each timepoint. Vehicle-adjusted HR (ΔVHR) was calculated in a similar manner to ΔVMAP.
Significance of AOC data were determined by one-way ANOVA followed by a Dunnett's multiple comparisons test as compared to vehicle. […]

Consider `Cc1cc(F)c(Cc2nc(-c3ncc(F)c(O)n3)cn3ccnc23)cc1F` [Compound I-14, 5-fluoro-2-(8-(2,5-difluoro-4-methylbenzyl)imidazo[1,2-a]pyrazin-6-yl)pyrimidin-4-ol], for which the “Peak ΔVMAP (mm Hg)” value by setting is: (1 mg/kg single oral dose) −6.2 mm Hg; (3 mg/kg single oral dose) −10.1 mm Hg; (10 mg/kg single oral dose) −22.3 mm Hg; (30 mg/kg single oral dose) −24.4 mm Hg. In addition, the “no effect dose on ΔBMAP” value (single oral dose, main effect analysis, simple effects analysis and AOC) stood at 1 mg/kg. The “Time at Peak” value is 90 min (1 mg/kg single oral dose), 70 min (3 mg/kg single oral dose), 30 min (10 mg/kg single oral dose) and 30 min (30 mg/kg single oral dose).

The values above are taken from patent US20260151391A1, “TREATMENT OF MITOCHONDRIAL DISEASES WITH sGC STIMULATORS” (Tisento Therapeutics Inc., priority 2022, published 2026).
